Assay results as given in ChEMBL document CHEMBL3885881, “DrugMatrix”.

Species: Rattus norvegicus
Experiment: DrugMatrix - Regimen: Daily Repeat
Assay type: toxicity, organism-based, Sprague-Dawley
Parameters: regimen Daily Repeat, gender Male, age 6-8 weeks
Conditions: in vivo, po, route oral GAVAGE, vehicle .5 % CMC; for ABSOLUTE BASOPHIL / ABSOLUTE EOSINOPHIL / ABSOLUTE LYMPHOCYTE / ABSOLUTE MONOCYTE / ABSOLUTE SEGMENTED NEUTROPHIL / BASOPHIL / EOSINOPHIL / ERYTHROCYTE COUNT / HEMATOCRIT / HEMOGLOBIN / LEUKOCYTE COUNT / LYMPHOCYTE / MEAN CORPUSCULAR HEMOGLOBIN / MEAN CORPUSCULAR HEMOGLOBIN CONCENTRATION / MEAN CORPUSCULAR VOLUME / MONOCYTE / NEUTROPHIL / NUCLEATED RED BLOOD CELLS / PLATELET COUNT: tissue Blood; for ALANINE AMINOTRANSFERASE / ALBUMIN / ALKALINE PHOSPHATASE / ASPARTATE AMINOTRANSFERASE / BLOOD UREA NITROGEN / CARBON DIOXIDE / CHLORIDE / CHOLESTEROL / CREATINE PHOSPHOKINASE / CREATININE / GLUCOSE / LACTATE DEHYDROGENASE / LIPASE / PHOSPHORUS / POTASSIUM / SODIUM / TOTAL BILIRUBIN / TOTAL PROTEIN / URIC ACID: tissue Plasma
[1] = 1 mg/kg, 72 h, dose level Low, time 3 day
[2] = 1 mg/kg, 120 h, dose level Low, time 5 day
[3] = 68 mg/kg, 72 h, dose level High, time 3 day
[4] = 68 mg/kg, 120 h, dose level High, time 5 day

C[C@]12C=CC(=O)C=C1CC[C@@H]1[C@@H]2C(=O)C[C@@]2(C)[C@H]1CC[C@]2(O)C(=O)CO [PREDNISONE]
ABSOLUTE BASOPHIL [1]: 0 CELLS/uL
ABSOLUTE EOSINOPHIL [1]: 0 CELLS/uL
ABSOLUTE LYMPHOCYTE [1]: 13566 CELLS/uL
ABSOLUTE MONOCYTE [1]: 151.33 CELLS/uL
ABSOLUTE SEGMENTED NEUTROPHIL [1]: 1516 CELLS/uL
BASOPHIL [1]: 0%
EOSINOPHIL [1]: 0%
ERYTHROCYTE COUNT [1]: 5.56 x10E6/uL
HEMATOCRIT [1]: 34.8%
HEMOGLOBIN [1]: 13.33 G/DL
LEUKOCYTE COUNT [1]: 15.23 x10E3/uL
LYMPHOCYTE [1]: 89%
MEAN CORPUSCULAR HEMOGLOBIN [1]: 24 pg
MEAN CORPUSCULAR HEMOGLOBIN CONCENTRATION [1]: 38.33 G/DL
MEAN CORPUSCULAR VOLUME [1]: 62.6 fL
MONOCYTE [1]: 1%
NEUTROPHIL [1]: 10%
NUCLEATED RED BLOOD CELLS [1]: 0.33 /100WBC
PLATELET COUNT [1]: 1291 x10E3/uL
ALANINE AMINOTRANSFERASE [1]: 51.67 u/L
ALBUMIN [1]: 4.43 G/DL
ALKALINE PHOSPHATASE [1]: 455.67 u/L
ASPARTATE AMINOTRANSFERASE [1]: 87.33 u/L
BLOOD UREA NITROGEN [1]: 16 mg/dL
CARBON DIOXIDE [1]: 24 mmol/L
CHLORIDE [1]: 107.33 MEQ/L
CHOLESTEROL [1]: 68.67 mg/dL
CREATINE PHOSPHOKINASE [1]: 294.67 u/L
CREATININE [1]: 0.23 mg/dL
GLUCOSE [1]: 153.33 mg/dL
LACTATE DEHYDROGENASE [1]: 398.67 u/L
LIPASE [1]: 10.67 u/L
PHOSPHORUS [1]: 13.37 mg/dL
POTASSIUM [1]: 7 MEQ/L
SODIUM [1]: 149 MEQ/L
TOTAL BILIRUBIN [1]: 0.27 mg/dL
TOTAL PROTEIN [1]: 6.23 G/DL
URIC ACID [1]: 1.53 mg/dL
ABSOLUTE BASOPHIL [2]: 0 CELLS/uL
ABSOLUTE EOSINOPHIL [2]: 43 CELLS/uL
ABSOLUTE LYMPHOCYTE [2]: 10491.67 CELLS/uL
ABSOLUTE MONOCYTE [2]: 227.33 CELLS/uL
ABSOLUTE SEGMENTED NEUTROPHIL [2]: 1004.67 CELLS/uL
BASOPHIL [2]: 0%
EOSINOPHIL [2]: 0.33%
ERYTHROCYTE COUNT [2]: 6.03 x10E6/uL
HEMATOCRIT [2]: 38.43%
HEMOGLOBIN [2]: 14.23 G/DL
LEUKOCYTE COUNT [2]: 11.77 x10E3/uL
LYMPHOCYTE [2]: 89%
MEAN CORPUSCULAR HEMOGLOBIN [2]: 23.67 pg
MEAN CORPUSCULAR HEMOGLOBIN CONCENTRATION [2]: 37.03 G/DL
MEAN CORPUSCULAR VOLUME [2]: 63.87 fL
MONOCYTE [2]: 2%
NEUTROPHIL [2]: 8.67%
NUCLEATED RED BLOOD CELLS [2]: 0 /100WBC
PLATELET COUNT [2]: 1197.33 x10E3/uL
ALANINE AMINOTRANSFERASE [2]: 65 u/L
ALBUMIN [2]: 4.63 G/DL
ALKALINE PHOSPHATASE [2]: 455 u/L
ASPARTATE AMINOTRANSFERASE [2]: 98.67 u/L
BLOOD UREA NITROGEN [2]: 16.33 mg/dL
CARBON DIOXIDE [2]: 24 mmol/L
CHLORIDE [2]: 104.67 MEQ/L
CHOLESTEROL [2]: 69.33 mg/dL
CREATINE PHOSPHOKINASE [2]: 336 u/L
CREATININE [2]: 0.19 mg/dL
GLUCOSE [2]: 168.67 mg/dL
LACTATE DEHYDROGENASE [2]: 329 u/L
LIPASE [2]: 10.33 u/L
PHOSPHORUS [2]: 15.57 mg/dL
POTASSIUM [2]: 7.49 MEQ/L
SODIUM [2]: 147.77 MEQ/L
TOTAL BILIRUBIN [2]: 0.17 mg/dL
TOTAL PROTEIN [2]: 6.6 G/DL
URIC ACID [2]: 2.67 mg/dL
ABSOLUTE BASOPHIL [3]: 0 CELLS/uL
ABSOLUTE EOSINOPHIL [3]: 35 CELLS/uL
ABSOLUTE LYMPHOCYTE [3]: 7367 CELLS/uL
ABSOLUTE MONOCYTE [3]: 79.33 CELLS/uL
ABSOLUTE SEGMENTED NEUTROPHIL [3]: 1085.33 CELLS/uL
BASOPHIL [3]: 0%
EOSINOPHIL [3]: 0.33%
ERYTHROCYTE COUNT [3]: 5.88 x10E6/uL
HEMATOCRIT [3]: 37.6%
HEMOGLOBIN [3]: 13.93 G/DL
LEUKOCYTE COUNT [3]: 8.57 x10E3/uL
LYMPHOCYTE [3]: 86%
MEAN CORPUSCULAR HEMOGLOBIN [3]: 23.7 pg
MEAN CORPUSCULAR HEMOGLOBIN CONCENTRATION [3]: 37.07 G/DL
MEAN CORPUSCULAR VOLUME [3]: 64 fL
MONOCYTE [3]: 1%
NEUTROPHIL [3]: 12.67%
NUCLEATED RED BLOOD CELLS [3]: 0.33 /100WBC
PLATELET COUNT [3]: 1265.33 x10E3/uL
ALANINE AMINOTRANSFERASE [3]: 45.33 u/L
ALBUMIN [3]: 4.9 G/DL
ALKALINE PHOSPHATASE [3]: 446 u/L
ASPARTATE AMINOTRANSFERASE [3]: 84 u/L
BLOOD UREA NITROGEN [3]: 18.33 mg/dL
CARBON DIOXIDE [3]: 17 mmol/L
CHLORIDE [3]: 102 MEQ/L
CHOLESTEROL [3]: 71.33 mg/dL
CREATINE PHOSPHOKINASE [3]: 290.67 u/L
CREATININE [3]: 0.2 mg/dL
GLUCOSE [3]: 148 mg/dL
LACTATE DEHYDROGENASE [3]: 411.33 u/L
LIPASE [3]: 11.33 u/L
PHOSPHORUS [3]: 13.93 mg/dL
POTASSIUM [3]: 7.66 MEQ/L
SODIUM [3]: 147.03 MEQ/L
TOTAL BILIRUBIN [3]: 0.27 mg/dL
TOTAL PROTEIN [3]: 6.87 G/DL
URIC ACID [3]: 2.23 mg/dL
ABSOLUTE BASOPHIL [4]: 0 CELLS/uL
ABSOLUTE EOSINOPHIL [4]: 26.33 CELLS/uL
ABSOLUTE LYMPHOCYTE [4]: 7838.33 CELLS/uL
ABSOLUTE MONOCYTE [4]: 52.67 CELLS/uL
ABSOLUTE SEGMENTED NEUTROPHIL [4]: 1616 CELLS/uL
BASOPHIL [4]: 0%
EOSINOPHIL [4]: 0.33%
ERYTHROCYTE COUNT [4]: 6.38 x10E6/uL
HEMATOCRIT [4]: 39.03%
HEMOGLOBIN [4]: 14.3 G/DL
LEUKOCYTE COUNT [4]: 9.53 x10E3/uL
LYMPHOCYTE [4]: 81.33%
MEAN CORPUSCULAR HEMOGLOBIN [4]: 22.43 pg
MEAN CORPUSCULAR HEMOGLOBIN CONCENTRATION [4]: 36.63 G/DL
MEAN CORPUSCULAR VOLUME [4]: 61.17 fL
MONOCYTE [4]: 0.67%
NEUTROPHIL [4]: 17.67%
NUCLEATED RED BLOOD CELLS [4]: 0 /100WBC
PLATELET COUNT [4]: 1351.33 x10E3/uL
ALANINE AMINOTRANSFERASE [4]: 47 u/L
ALBUMIN [4]: 4.67 G/DL
ALKALINE PHOSPHATASE [4]: 399 u/L
ASPARTATE AMINOTRANSFERASE [4]: 95.33 u/L
BLOOD UREA NITROGEN [4]: 19 mg/dL
CARBON DIOXIDE [4]: 30.67 mmol/L
CHLORIDE [4]: 103.33 MEQ/L
CHOLESTEROL [4]: 49 mg/dL
CREATINE PHOSPHOKINASE [4]: 935.33 u/L
CREATININE [4]: 0.2 mg/dL
GLUCOSE [4]: 169 mg/dL
LACTATE DEHYDROGENASE [4]: 578.33 u/L
LIPASE [4]: 12.33 u/L
PHOSPHORUS [4]: 13.23 mg/dL
POTASSIUM [4]: 6.47 MEQ/L
SODIUM [4]: 147.4 MEQ/L
TOTAL BILIRUBIN [4]: 0.27 mg/dL
TOTAL PROTEIN [4]: 6.8 G/DL
URIC ACID [4]: 1.87 mg/dL
